Usually NOAEL stands for the highest tested level that showed no adverse finding.

Consider one molecule from EPA's ToxValDB 9.5 (doi:10.2903/j.efsa.2008.146r).

One series concerns Tagia sp. The conditions noted are these: acute; duration: 14 days; mortality.
Another series deals with Apis mellifera. Particulars: acute, mortality.
The subject of the next series is Coturnix japonica. Particulars: reproduction developmental.
In another series the test system is Canidae. Particulars: oral, Dog Other, clinical signs.
The test system of the next series is Colinus virginianus. Particulars: acute, oral, mortality.
A further series relates to Daphnia magna. Particulars: chronic/long-term; duration: 21 days; reproduction.
Another series concerns Aphidius rhopalosiphi. Description: LR50; higher = less toxic. The conditions noted are these: acute; duration: 48 hours; mortality.
Another series has as its system Typhlodromus pyri. Description: LR50; higher = less toxic. Particulars: acute; duration: 14 days; mortality.

Turning to `C[N+]1(C)CCCCC1.[Cl-]` [1,1-Dimethylpiperidinium chloride], the LC50 in the series on Tagia sp. is 320 mg/kg; in the series with Oncorhynchus mykiss (acute, duration: 96 hours, mortality) it was over 100 µg/mL. Besides, the LD50 with Apis mellifera (dermal) was over 100 µg/piece; in the series on Apis mellifera (oral, unspecified) it was over 107 µg/piece; in the series on Colinus virginianus (diet), over 1330 mg/kg-day; in the series with Colinus virginianus, over 2000 mg/kg-day; with Rattus norvegicus (acute, oral, mortality), 200 mg/kg-day. Also, the NOEC with Coturnix japonica was determined as 933 mg/kg-day; in the series on Oncorhynchus mykiss (chronic/long-term, duration: 28 days, growth), 100 mg/L; in the series with Daphnia magna, 12.5 mg/L. For the same molecule, the NOAEL is 19.9 mg/kg-day in the series with Canidae (chronic, duration: 12 months); 30.5 mg/kg-day in the series on Canidae (subchronic, duration: 3 months); 30 mg/kg-day with Rattus norvegicus (reproduction developmental, mortality). For the same molecule, in the series on Rattus norvegicus (reproduction developmental), the NOAEC was determined as 155 mg/kg-day. For the same molecule, the LR50 is 1370 g/ha in the series with Aphidius rhopalosiphi and 1530 g/ha in the series on Typhlodromus pyri.
